US20230148602A1, “BENZAMIDE COMPOUND AND HERBICIDE” (Nippon Soda Co., Ltd., priority 2020, published 2023)

Legend:
Matricaria chamomilla = assay: Test Example 1 foliage treatment, weed killing rate; format: in vivo; details: foliar, 504 h, 250 g/ha active ingredient, foliage spray, after 3 weeks
Description: (§1) POA allylphenyl ether (4.1 parts by weight), POE-POP glycol (1 part by weight), POE sorbitan laurate (0.8 parts by weight), glycerin (2.6 parts by weight), dimethylformamide (65.9 parts by weight), N-methylpyrrolidone (5.1 parts by weight), cyclohexanone (15.4 parts by weight), and aromatic hydrocarbons (5.1 parts by weight) were mixed to obtain an emulsion.
(§2) The compound of the present invention (4 mg) was dissolved in this emulsion (100 μt) to obtain a test emulsion. POA means “polyoxyalkylene”, POE means “polyoxyethylene”, and POP means “polyoxypropylene”.
(§3) In a 150 cm^2 pot filled with soil, seeds of Digitaria ciliaris, Amaranthus retroflexus, Alopecurus myosuroides and Matricaria chamomilla were respectively sown and covered lightly with soil. Thereafter, they were grown in a greenhouse. When each plant grew to a plant height of 2 to 5 cm, the above test emulsion was diluted with water and sprayed on the foliage with a small sprayer at a spray water volume of 250 L per hectare (the amount of active ingredient of 250 g per hectare).
(§4) After 3 weeks, the above ground weights of weeds in the untreated and treated areas were measured for each plant, and the weed killing rate was calculated by the following calculation formula.
(§5) Weed killing rate (%)=[{(above ground weight of weeds in untreated area)−(above ground weight of weeds in treated area)}/(above ground weight of weeds in untreated area)]×100

Alopecurus myosuroides [1] = assay: as above; format: in vivo; details: foliar, 504 h, 250 g/ha active ingredient, foliage spray, after 3 weeks
Description: as §1, §2, §3, §4, §5

Amaranthus retroflexus = assay: as above; format: in vivo; details: foliar, 504 h, 250 g/ha active ingredient, foliage spray, after 3 weeks
Description: as §1, §2, §3, §4, §5

Digitaria ciliaris = assay: as above; format: in vivo; details: foliar, 504 h, 250 g/ha active ingredient, foliage spray, after 3 weeks
Description: as §1, §2, §3, §4, §5

Setaria faberi = assay: Test Example 2 foliage treatment, weed killing rate; format: in vivo; details: foliage spray, after 4 weeks
Description: (§6) In a 150 cm^2 pot filled with soil, seeds of Alopecurus myosuroides, Setaria faberi and Zea mays were sown and covered lightly with soil. Thereafter, they were grown in a greenhouse. When Alopecurus myosuroides and Setaria faberi grew to a plant height of 2 to 5 cm and Zea mays grew to 30 to 35 cm, the test emulsion obtained in Test Example 1 was diluted with water and sprayed on the foliage with a small sprayer at a spray water volume of 250 L per hectare (the amount of active ingredient of 250 g, 63 g, or 16 g per hectare). Also for the compound represented by the formula (B) (Compound No. B-1), a test emulsion was obtained in the same manner as in Test Example 1, and Test Example 2 was carried out using the emulsion. After 4 weeks, the above ground weights of weeds in the untreated and treated areas were measured for each plant, and the weed killing rate was calculated by the following calculation formula. Weed killing rate (%)=[{(above ground weight of weeds in untreated area)−(above ground weight of weeds in treated area)}/(above ground weight of weeds in untreated area)]×100

Alopecurus myosuroides [2] = assay: as above; format: in vivo; details: foliage spray, after 4 weeks
Description: as §6

Zea mays = assay: Test Example 2 foliage treatment, weed killing rate on maize (phytotoxicity); format: in vivo; details: foliage spray, after 4 weeks, crop (phytotoxicity to maize)
Description: as §6

melting point [°C] | Structure (SMILES) | pest or weed control at 250 g/ha (Matricaria chamomilla) [%] | pest or weed control at 250 g/ha (Alopecurus myosuroides [1]) [%] | pest or weed control at 250 g/ha (Amaranthus retroflexus) [%] | pest or weed control at 250 g/ha (Digitaria ciliaris) [%] | further results
188 to 192 | Cc1c(NC(=O)C(=O)N(C)C2CC2)c(Br)cc(F)c1C(=O)Nc1nnnn1C [A-6] | 100 | 90 | 100 | 80 | –
244 to 246 | Cc1c(NC(=O)C(=O)N2CCOCC2)c(Br)cc(F)c1C(=O)Nc1nnnn1C [A-7] | – | – | 70 | – | –
154 to 157 | CCOC(=O)C(=O)Nc1c(Br)cc(F)c(C(=O)Nc2nnnn2C)c1C [A-15] | – | – | – | – | –
221 to 223 | CC(=O)C(=O)Nc1c(Br)cc(F)c(C(=O)Nc2nnnn2C)c1C [A-16] | 90 | – | 70 | – | –
275 to 278 | Cc1c(NC(=O)C(=O)N2CCCC2)c(Br)cc(F)c1C(=O)Nc1nnnn1C [A-14] | – | – | 80 | – | –
212 to 215 | CON(C)C(=O)C(=O)Nc1c(Br)cc(F)c(C(=O)Nc2nnnn2C)c1C [A-17] | – | – | – | – | –

Second part, the compound before the results:

Structure (SMILES) | melting point [°C] | pest or weed control at 250 g/ha (Matricaria chamomilla) [%] | pest or weed control at 250 g/ha (Alopecurus myosuroides [1]) [%] | pest or weed control at 250 g/ha (Amaranthus retroflexus) [%] | pest or weed control at 250 g/ha (Digitaria ciliaris) [%] | further results
Cc1c(NC(=O)C(=O)N(C)CC(F)(F)F)cccc1C(=O)Nc1nnnn1C [A-12] | 104 to 107 | – | – | – | – | –
CN(CC(F)(F)F)C(=O)C(=O)Nc1c(Br)cc(F)c(C(=O)Nc2nnnn2C)c1Cl [A-10] | 243 to 246 | 100 | 70 | 100 | – | –
CCN(C)C(=O)C(=O)Nc1c(Br)cc(F)c(C(=O)Nc2nnnn2C)c1Cl [A-8] | 233 to 235 | 100 | 100 | 100 | 70 | –
Cc1c(C(=O)Nc2nnnn2C)ccc(Br)c1NC(=O)C(=O)N(C)CC(F)(F)F [A-11] | 204 to 206 | 100 | 100 | 100 | 100 | –
Cc1c(NC(=O)N(C)CC(F)(F)F)c(Br)cc(F)c1C(=O)Nc1nnnn1C [B-1, reference compound] | – | – | – | – | – | Weed killing rate Setaria faberi (Setaria faberi; 16 g/ha active ingredient): 20%; Weed killing rate Setaria faberi (Setaria faberi; 63 g/ha active ingredient): 50%; Weed killing rate Setaria faberi (Setaria faberi; 250 g/ha active ingredient): 100%; Weed killing rate Alopecurus myosuroides (Alopecurus myosuroides [2]; 16 g/ha active ingredient): 40%; Weed killing rate Alopecurus myosuroides (Alopecurus myosuroides [2]; 63 g/ha active ingredient): 50%; Weed killing rate Alopecurus myosuroides (Alopecurus myosuroides [2]; 250 g/ha active ingredient): 90%; Weed killing rate Zea mays (Zea mays; 16 g/ha active ingredient): 20%; Weed killing rate Zea mays (Zea mays; 63 g/ha active ingredient): 30%; Weed killing rate Zea mays (Zea mays; 250 g/ha active ingredient): 90%
CCN(CC)C(=O)C(=O)Nc1c(Br)cc(F)c(C(=O)Nc2nnnn2C)c1C [A-13] | 198 to 201 | 100 | 100 | 100 | 90 | –
CCN(CC)C(=O)C(=O)Nc1c(Br)cc(F)c(C(=O)Nc2nnnn2C)c1Cl [A-9] | 220 to 223 | 100 | 100 | 80 | 70 | –
Cc1c(NC(=O)C(=O)N(C)CC(F)(F)F)c(Br)cc(F)c1C(=O)Nc1nnnn1C [A-3] | – | 100 | 100 | 100 | 100 | Weed killing rate Setaria faberi (Setaria faberi; 16 g/ha active ingredient): 50%; Weed killing rate Setaria faberi (Setaria faberi; 63 g/ha active ingredient): 100%; Weed killing rate Setaria faberi (Setaria faberi; 250 g/ha active ingredient): 100%; Weed killing rate Alopecurus myosuroides (Alopecurus myosuroides [2]; 16 g/ha active ingredient): 80%; Weed killing rate Alopecurus myosuroides (Alopecurus myosuroides [2]; 63 g/ha active ingredient): 100%; Weed killing rate Alopecurus myosuroides (Alopecurus myosuroides [2]; 250 g/ha active ingredient): 100%; Weed killing rate Zea mays (Zea mays; 16 g/ha active ingredient): 0%; Weed killing rate Zea mays (Zea mays; 63 g/ha active ingredient): 0%; Weed killing rate Zea mays (Zea mays; 250 g/ha active ingredient): 30%
COCCN(C)C(=O)C(=O)Nc1c(Br)cc(F)c(C(=O)Nc2nnnn2C)c1C [A-5] | 179 to 181 | – | 70 | 80 | 80 | –
Cc1c(C(=O)Nc2nnnn2C)ccc(C(F)(F)F)c1NC(=O)C(=O)N(C)CC(F)(F)F [A-18] | 190 to 193 | – | – | – | – | –
CCN(C)C(=O)C(=O)Nc1c(Br)cc(F)c(C(=O)Nc2nnnn2C)c1C [A-2] | 191 to 194 | 100 | 100 | 100 | 100 | –
Cc1c(NC(=O)C(=O)N(C)C)c(Br)cc(F)c1C(=O)Nc1nnnn1C [A-1, N^1-(6-bromo-4-fluoro-2-methyl-3-((1-methyl-1H-tetrazol-5-yl)carbamoyl)phenyl)-N^2,N^2-dimethyloxalamide] | – | 100 | 100 | 100 | 100 | –
